Assay results reported in patent US10710978B2, “STK4 inhibitors for treatment of hematologic malignancies” (Dana-Farber Cancer Institute, Inc., priority 2015, dated 2020).
Like-named read-outs stand apart in the source and are kept apart here.

Columns and labels:
Assay in all cases: KiNativ assay
Type in all cases: binding
Settings in all cases: H929 live cell
PLK1 = PLK1 (Homo sapiens (Human), UniProt P53350)
Method: (§1) Biochemical IC50s of the compounds of the present disclosure against various kinases were measured in a KiNativ assay. Compounds were screened in duplicate at 10 μM in H929 live cell. IC50 was measured via Mass spectroscopy (MS).

ABL, ARG = test system: ABL, ARG
Method: as §1

NEK4 = NEK4 (Homo sapiens (Human), UniProt P51957)
Method: as §1

CDC2 = CDC2 (Homo sapiens (Human), UniProt P06493)
Method: as §1

PRPK = PRPK (Homo sapiens (Human), UniProt Q96S44)
Method: as §1

CK1a = CK1a (Homo sapiens (Human), UniProt P48729)
Method: as §1

MAP2K5 = MAP2K5 (Homo sapiens (Human), UniProt Q13163)
Method: as §1

MASTL = MASTL (Homo sapiens (Human), UniProt Q96GX5)
Method: as §1

PIP4K2A = PIP4K2A (Homo sapiens (Human), UniProt P48426)
Method: as §1

SGK3 = SGK3 (Homo sapiens (Human), UniProt Q96BR1)
Method: as §1

SRPK1 = SRPK1 (Homo sapiens (Human), UniProt Q96SB4)
Method: as §1

CK1g2 = CK1g2 (Homo sapiens (Human), UniProt P78368)
Method: as §1

IRE1 = IRE1 (Homo sapiens (Human), UniProt O75460)
Method: as §1

LYN = LYN (Homo sapiens (Human), UniProt P07948)
Method: as §1

CDK5 = CDK5 (Homo sapiens (Human), UniProt Q00535)
Method: as §1

LKB1 = LKB1 (Homo sapiens (Human), UniProt Q15831)
Method: as §1

IKKb = IKKb (Homo sapiens (Human), UniProt O14920)
Method: as §1

NuaK1 = NuaK1 (Homo sapiens (Human), UniProt O60285)
Method: as §1

HPK1 = HPK1 (Homo sapiens (Human), UniProt Q92918)
Method: as §1

MARK3 = MARK3 (Homo sapiens (Human), UniProt P27448)
Method: as §1

KSR1, KSR2 = test system: KSR1, KSR2
Method: as §1

SRPK2 = SRPK2 (Homo sapiens (Human), UniProt P78362)
Method: as §1

JAK3 domain2 = JAK3 domain2 (Homo sapiens (Human), UniProt P52333)
Method: as §1

GCN2 domain2 = GCN2 domain2 (Homo sapiens (Human), UniProt Q9P2K8)
Method: as §1

MAP3K2, MAP3K3 = test system: MAP3K2, MAP3K3
Method: as §1

ULK1 = ULK1 (Homo sapiens (Human), UniProt O75385)
Method: as §1

PITSLRE = test system: PITSLRE
Method: as §1

CDK2 = CDK2 (Homo sapiens (Human), UniProt P24941)
Method: as §1

RSK1 domain1 = RSK1 domain1 (Homo sapiens (Human), UniProt Q15418)
Method: as §1

PKN1 = PKN1 (Homo sapiens (Human), UniProt Q16512)
Method: as §1

IKKe, TBK1 = test system: IKKe, TBK1
Method: as §1

MLKL = MLKL (Homo sapiens (Human), UniProt Q8NB16)
Method: as §1

STLK5 = STLK5 (Homo sapiens (Human), UniProt Q7RTN6)
Method: as §1

IKKa = IKKa (Homo sapiens (Human), UniProt O15111)
Method: as §1

[1] = range class, read-out: % inhibition

Chain of NuaK1 (O60285 whole entry): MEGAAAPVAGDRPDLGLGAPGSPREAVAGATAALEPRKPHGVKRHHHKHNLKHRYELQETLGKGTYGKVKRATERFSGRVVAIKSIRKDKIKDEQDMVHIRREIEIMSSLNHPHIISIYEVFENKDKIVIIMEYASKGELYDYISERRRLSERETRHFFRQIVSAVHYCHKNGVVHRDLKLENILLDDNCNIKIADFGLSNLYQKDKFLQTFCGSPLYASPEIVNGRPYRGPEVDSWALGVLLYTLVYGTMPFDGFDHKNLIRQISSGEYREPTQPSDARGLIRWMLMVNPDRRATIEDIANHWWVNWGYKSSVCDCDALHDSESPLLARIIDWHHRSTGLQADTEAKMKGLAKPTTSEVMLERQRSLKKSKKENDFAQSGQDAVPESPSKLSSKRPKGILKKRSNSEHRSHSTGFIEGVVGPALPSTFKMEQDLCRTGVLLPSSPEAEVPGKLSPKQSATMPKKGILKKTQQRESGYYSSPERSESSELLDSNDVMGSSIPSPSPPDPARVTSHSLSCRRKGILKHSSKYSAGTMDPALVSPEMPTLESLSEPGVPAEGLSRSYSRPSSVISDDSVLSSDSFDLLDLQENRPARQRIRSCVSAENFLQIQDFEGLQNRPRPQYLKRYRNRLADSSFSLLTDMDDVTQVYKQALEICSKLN
Chain of LYN (P07948 whole entry): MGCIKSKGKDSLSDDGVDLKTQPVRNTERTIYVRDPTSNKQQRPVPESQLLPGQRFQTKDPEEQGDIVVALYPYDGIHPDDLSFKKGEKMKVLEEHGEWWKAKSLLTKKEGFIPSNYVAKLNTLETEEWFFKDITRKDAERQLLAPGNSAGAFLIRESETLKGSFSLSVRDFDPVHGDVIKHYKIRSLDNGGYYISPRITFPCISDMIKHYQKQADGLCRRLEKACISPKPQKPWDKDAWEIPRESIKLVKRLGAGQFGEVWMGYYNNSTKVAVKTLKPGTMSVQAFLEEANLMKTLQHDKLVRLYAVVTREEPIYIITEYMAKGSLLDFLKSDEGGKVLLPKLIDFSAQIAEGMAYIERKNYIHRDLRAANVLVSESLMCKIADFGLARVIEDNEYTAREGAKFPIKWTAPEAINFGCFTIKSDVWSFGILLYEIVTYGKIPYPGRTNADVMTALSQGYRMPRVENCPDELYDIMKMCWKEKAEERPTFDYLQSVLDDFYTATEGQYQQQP
Chain of SRPK1 (Q96SB4 whole entry): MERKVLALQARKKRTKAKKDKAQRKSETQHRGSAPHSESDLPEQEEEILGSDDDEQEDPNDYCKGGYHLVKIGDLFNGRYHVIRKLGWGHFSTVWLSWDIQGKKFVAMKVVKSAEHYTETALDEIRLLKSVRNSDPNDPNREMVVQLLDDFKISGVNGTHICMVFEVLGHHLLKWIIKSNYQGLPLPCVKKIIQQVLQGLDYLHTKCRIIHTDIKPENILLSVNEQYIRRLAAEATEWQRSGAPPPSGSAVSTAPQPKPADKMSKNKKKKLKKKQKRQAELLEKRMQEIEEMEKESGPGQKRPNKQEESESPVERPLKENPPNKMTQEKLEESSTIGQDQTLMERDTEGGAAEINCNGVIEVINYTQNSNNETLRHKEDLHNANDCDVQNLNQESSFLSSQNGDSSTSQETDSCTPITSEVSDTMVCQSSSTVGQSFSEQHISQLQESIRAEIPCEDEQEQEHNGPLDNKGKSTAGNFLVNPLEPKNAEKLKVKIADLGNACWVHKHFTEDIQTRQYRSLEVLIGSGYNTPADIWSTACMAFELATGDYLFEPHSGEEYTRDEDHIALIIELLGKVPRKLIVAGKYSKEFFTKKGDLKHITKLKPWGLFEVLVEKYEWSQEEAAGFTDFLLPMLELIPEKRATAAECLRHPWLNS
Chain of MAP2K5 (Q13163 whole entry): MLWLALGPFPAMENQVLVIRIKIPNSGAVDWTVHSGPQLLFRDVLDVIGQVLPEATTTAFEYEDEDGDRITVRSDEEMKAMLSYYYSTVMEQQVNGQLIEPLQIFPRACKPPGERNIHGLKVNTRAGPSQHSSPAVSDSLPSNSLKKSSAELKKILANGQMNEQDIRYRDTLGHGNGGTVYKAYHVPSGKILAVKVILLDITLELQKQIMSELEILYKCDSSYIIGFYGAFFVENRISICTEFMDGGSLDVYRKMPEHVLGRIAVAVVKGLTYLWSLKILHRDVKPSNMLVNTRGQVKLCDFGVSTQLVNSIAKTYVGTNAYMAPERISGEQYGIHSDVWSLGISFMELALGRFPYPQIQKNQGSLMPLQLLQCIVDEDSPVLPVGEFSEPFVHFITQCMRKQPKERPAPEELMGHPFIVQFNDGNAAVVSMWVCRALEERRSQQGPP
Chain of PKN1 (Q16512 whole entry): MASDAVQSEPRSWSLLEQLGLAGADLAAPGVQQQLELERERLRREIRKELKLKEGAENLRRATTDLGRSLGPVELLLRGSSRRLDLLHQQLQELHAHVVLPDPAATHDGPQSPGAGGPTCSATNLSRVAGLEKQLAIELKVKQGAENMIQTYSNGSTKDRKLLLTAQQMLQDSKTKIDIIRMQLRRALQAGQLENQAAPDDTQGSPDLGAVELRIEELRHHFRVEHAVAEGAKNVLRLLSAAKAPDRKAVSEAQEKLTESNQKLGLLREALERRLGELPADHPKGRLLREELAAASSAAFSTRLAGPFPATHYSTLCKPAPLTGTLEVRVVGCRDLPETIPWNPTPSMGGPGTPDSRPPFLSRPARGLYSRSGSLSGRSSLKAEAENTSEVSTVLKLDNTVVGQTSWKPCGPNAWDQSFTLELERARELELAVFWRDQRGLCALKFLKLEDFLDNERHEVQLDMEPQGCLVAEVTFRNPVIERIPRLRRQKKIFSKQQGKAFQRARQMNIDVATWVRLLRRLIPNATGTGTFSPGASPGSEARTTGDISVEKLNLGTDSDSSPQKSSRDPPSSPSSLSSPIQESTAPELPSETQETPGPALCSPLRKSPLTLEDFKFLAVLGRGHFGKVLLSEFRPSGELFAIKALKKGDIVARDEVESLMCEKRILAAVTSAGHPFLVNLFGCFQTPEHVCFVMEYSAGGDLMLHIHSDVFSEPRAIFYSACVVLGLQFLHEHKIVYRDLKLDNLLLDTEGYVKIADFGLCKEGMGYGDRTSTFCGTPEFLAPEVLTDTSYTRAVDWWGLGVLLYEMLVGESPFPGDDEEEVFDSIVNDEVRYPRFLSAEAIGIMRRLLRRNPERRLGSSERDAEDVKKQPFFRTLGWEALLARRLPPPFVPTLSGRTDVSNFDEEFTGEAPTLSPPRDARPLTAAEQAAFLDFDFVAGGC
Chain of CK1a (P48729 whole entry): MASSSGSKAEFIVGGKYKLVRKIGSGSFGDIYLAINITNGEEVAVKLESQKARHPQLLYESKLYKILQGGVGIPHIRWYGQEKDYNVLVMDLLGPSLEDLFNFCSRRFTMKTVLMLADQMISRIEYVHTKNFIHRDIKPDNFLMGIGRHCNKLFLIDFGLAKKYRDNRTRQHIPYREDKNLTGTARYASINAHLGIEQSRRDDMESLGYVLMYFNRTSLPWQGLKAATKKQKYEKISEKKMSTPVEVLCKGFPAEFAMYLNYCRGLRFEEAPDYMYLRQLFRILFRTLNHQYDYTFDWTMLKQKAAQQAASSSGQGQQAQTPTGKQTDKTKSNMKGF
Chain of CDC2 (P06493 whole entry): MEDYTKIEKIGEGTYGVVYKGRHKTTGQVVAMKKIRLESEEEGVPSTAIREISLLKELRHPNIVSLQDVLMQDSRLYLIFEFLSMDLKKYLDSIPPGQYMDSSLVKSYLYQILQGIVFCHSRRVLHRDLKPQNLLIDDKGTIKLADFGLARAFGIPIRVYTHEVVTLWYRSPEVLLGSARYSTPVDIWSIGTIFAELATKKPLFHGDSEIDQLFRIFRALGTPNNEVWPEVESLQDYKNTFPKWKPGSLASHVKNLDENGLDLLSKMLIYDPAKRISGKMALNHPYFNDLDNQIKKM
Chain of ULK1 (O75385 whole entry): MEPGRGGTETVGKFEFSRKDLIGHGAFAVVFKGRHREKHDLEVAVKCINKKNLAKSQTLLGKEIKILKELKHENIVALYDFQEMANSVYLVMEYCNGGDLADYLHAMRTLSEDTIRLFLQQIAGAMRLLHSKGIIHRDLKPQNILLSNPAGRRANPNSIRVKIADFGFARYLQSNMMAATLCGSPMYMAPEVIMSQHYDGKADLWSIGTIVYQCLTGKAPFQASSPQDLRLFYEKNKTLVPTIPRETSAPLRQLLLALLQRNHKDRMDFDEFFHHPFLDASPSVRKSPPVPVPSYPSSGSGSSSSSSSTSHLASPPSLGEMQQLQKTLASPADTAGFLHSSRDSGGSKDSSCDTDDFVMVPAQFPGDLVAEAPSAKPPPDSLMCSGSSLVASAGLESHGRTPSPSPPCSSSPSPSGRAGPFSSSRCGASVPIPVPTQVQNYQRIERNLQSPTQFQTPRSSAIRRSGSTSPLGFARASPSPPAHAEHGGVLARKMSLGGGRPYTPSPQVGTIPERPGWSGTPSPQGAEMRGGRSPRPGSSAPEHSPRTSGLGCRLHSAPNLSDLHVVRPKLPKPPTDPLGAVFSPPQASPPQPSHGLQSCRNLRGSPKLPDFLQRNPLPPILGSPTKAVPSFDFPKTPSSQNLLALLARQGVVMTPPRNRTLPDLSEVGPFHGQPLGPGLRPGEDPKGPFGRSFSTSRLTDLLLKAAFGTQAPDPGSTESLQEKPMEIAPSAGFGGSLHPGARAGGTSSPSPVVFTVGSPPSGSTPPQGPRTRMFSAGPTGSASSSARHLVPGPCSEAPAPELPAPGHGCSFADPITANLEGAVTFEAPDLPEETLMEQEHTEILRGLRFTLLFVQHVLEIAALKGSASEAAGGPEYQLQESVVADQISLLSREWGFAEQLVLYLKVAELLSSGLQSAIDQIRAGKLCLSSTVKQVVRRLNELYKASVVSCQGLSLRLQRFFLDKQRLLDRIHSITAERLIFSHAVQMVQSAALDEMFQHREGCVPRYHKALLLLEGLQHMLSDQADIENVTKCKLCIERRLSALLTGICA

With `Nc1ncc(-c2ccc(NS(=O)(=O)C3CC3)cc2F)cc1-c1ccc2c(c1)CCNC2=O` [Compound I-51, N-(4-(6-amino-5-(1-oxo-1,2,3,4-tetrahydroisoquinolin-6-yl)pyridin-3-yl)-3-fluorophenyl) cyclopropanesulfonamide] the inhibition at 10 µM (PLK1; [1]) was 0%, the inhibition at 10 µM (PLK1; read-out: inhibition (10 μM)) was -20.6% and the “% inhibition” value (ABL, ARG; 10 μM, range class) was 0.0%. For the same compound, the “inhibition (10 μM)” value (ABL, ARG) was −3.0%, the inhibition at 10 µM (NEK4; [1]) was 0% and the inhibition at 10 µM (NEK4; read-out: inhibition (10 μM)) was 25.8%. The inhibition at 10 µM (CDC2; [1]) was 0%, the inhibition at 10 µM (CDC2; read-out: inhibition (10 μM)) was 18.5% and the inhibition at 10 µM (PRPK; [1]) was 0%. The inhibition at 10 µM (PRPK; read-out: inhibition (10 μM)) was -47.4%, the inhibition at 10 µM (CK1a; [1]) was 0% and the inhibition at 10 µM (CK1a; read-out: inhibition (10 μM)) was -34.7%. For the same compound, the inhibition at 10 µM (MAP2K5; [1]) was 0%, the inhibition at 10 µM (MAP2K5; read-out: inhibition (10 μM)) was -4% and the inhibition at 10 µM (MASTL; [1]) was 0%. For the same compound, the inhibition at 10 µM (MASTL; read-out: inhibition (10 μM)) was 14.6%, the inhibition at 10 µM (PIP4K2A; [1]) was 0% and the inhibition at 10 µM (PIP4K2A; read-out: inhibition (10 μM)) was -16.5%. It also gave an inhibition at 10 µM (SGK3; [1]) of 0%, an inhibition at 10 µM (SGK3; read-out: inhibition (10 μM)) of 26.3% and an inhibition at 10 µM (SRPK1; [1]) of 0%. For the same compound, the inhibition at 10 µM (SRPK1; read-out: inhibition (10 μM)) was -11.5%, the inhibition at 10 µM (CK1g2; [1]) was 75 to 90% and the inhibition at 10 µM (CK1g2; read-out: inhibition (10 μM)) was 84.1%. The inhibition at 10 µM (IRE1; [1]) was 0%, the inhibition at 10 µM (IRE1; read-out: inhibition (10 μM)) was -43.1% and the inhibition at 10 µM (LYN; [1]) was 0%. It also gave an inhibition at 10 µM (LYN; read-out: inhibition (10 μM)) of -21.9%, an inhibition at 10 µM (CDK5; [1]) of 35 to 40% and an inhibition at 10 µM (CDK5; read-out: inhibition (10 μM)) of 37.2%. For the same compound, the inhibition at 10 µM (LKB1; [1]) was 0%, the inhibition at 10 µM (LKB1; read-out: inhibition (10 μM)) was 5.1% and the inhibition at 10 µM (IKKb; [1]) was 0%. For the same compound, the inhibition at 10 µM (IKKb; read-out: inhibition (10 μM)) was -19.5%, the “inhibition (10 μM)” value (NuaK1) was 68.8% and the inhibition at 10 µM (NuaK1; [1]) was 50 to 75%. It also gave an inhibition at 10 µM (NuaK1; read-out: inhibition (10 μM)) of 71.9%, an inhibition at 10 µM (HPK1; [1]) of 75 to 90% and an inhibition at 10 µM (HPK1; read-out: inhibition (10 μM)) of 83.5%. The inhibition at 10 µM (MARK3; [1]) was 0%, the inhibition at 10 µM (MARK3; read-out: inhibition (10 μM)) was 4.8% and the “% inhibition” value (KSR1, KSR2; 10 μM, range class) was 0.0%. For the same compound, the “inhibition (10 μM)” value (KSR1, KSR2) was −5.2%, the inhibition at 10 µM (SRPK2; [1]) was 0% and the inhibition at 10 µM (SRPK2; read-out: inhibition (10 μM)) was -41%. The inhibition at 10 µM (JAK3 domain2; [1]) was 0%, the inhibition at 10 µM (JAK3 domain2; read-out: inhibition (10 μM)) was 13.4% and the inhibition at 10 µM (GCN2 domain2; [1]) was 0%. The inhibition at 10 µM (GCN2 domain2; read-out: inhibition (10 μM)) was -5.1%, the “% inhibition” value (MAP3K2, MAP3K3; 10 μM, range class) was 0.0% and the “inhibition (10 μM)” value (MAP3K2, MAP3K3) was 26.7%. The inhibition at 10 µM (ULK1; [1]) was 35 to 40%, the inhibition at 10 µM (ULK1; read-out: inhibition (10 μM)) was 40% and the “% inhibition” value (PITSLRE; 10 μM, range class) was 0.0%. The “inhibition (10 μM)” value (PITSLRE) was −20.2%, the inhibition at 10 µM (CDK2; [1]) was 35 to 40% and the inhibition at 10 µM (CDK2; read-out: inhibition (10 μM)) was 35%. It also gave an inhibition at 10 µM (RSK1 domain1; [1]) of 0%, an inhibition at 10 µM (RSK1 domain1; read-out: inhibition (10 μM)) of 5.4% and an inhibition at 10 µM (PKN1; [1]) of 0%. The inhibition at 10 µM (PKN1; read-out: inhibition (10 μM)) was -72.1%, the “% inhibition” value (IKKe, TBK1; 10 μM, range class) was 0.0% and the “inhibition (10 μM)” value (IKKe, TBK1) was 26.7%. It also gave an inhibition at 10 µM (MLKL; [1]) of 50 to 75%, an inhibition at 10 µM (MLKL; read-out: inhibition (10 μM)) of 51.4% and an inhibition at 10 µM (STLK5; [1]) of 0%. It also gave an inhibition at 10 µM (STLK5; read-out: inhibition (10 μM)) of -17.1%, an inhibition at 10 µM (IKKa; [1]) of 0% and an inhibition at 10 µM (IKKa; read-out: inhibition (10 μM)) of -17.3%.
